Results: patent US4136179A, “2,2-Dimethyl-19-nor-steroids” (Roussel Uclaf, priority 1976, dated 1979)

Test system: aldosterone monoacetate
Assay: Anti-aldosterone activity in surrenalectomized rats (urinary sodium/potassium)
Format: in vivo, rat (male, Sprague-Dawley)
Conditions: for % inhibition of the activity of 1 μg/kg of aldosterone monoacetate: surrenalectomized male Sprague-Dawley rats, aldosterone 1 μg/kg s.c., 4 hours urine, sodium and potassium; for antialdosterone activity (in words): orally administered
Method: Male rats of the Sprague-Dawley strain weighing about 180 g were surrenalectomized and at that moment, the rats received with their drinking water physiological serum. On the 4th day, the animals were fasted for 16 hours and then received as drinking water water containing 5% glucose. The test product was administered orally at the end of 16 hours in the form of a suspension in 0.25% carboxymethylcellulose. One hour after the administration of the product, they received intraperitoneally a surcharge of aqueous sodium chloride at a rate of 5 ml per 100 g of body weight of […] physiological serum and subcutaneously 1 μg/kg of an alcoholic solution of 2.5% of aldosterone acetate. The animals were placed in diuresis cages without food or drink for 4 hours. At the end of this time, a miction was forced by pressure on the bladder and the volume of urine was adjusted to 50 ml and the amount of sodium and potassium was determined with an autoanalyser. The results expressed as the percentage of inhibition of the activity of 1 μg/kg of aldosterone monoacetate injected subcutaneously with the ratio of [formula] in the surrenalectomized rats is reported in the following Table.

SMILES | % inhibition of the activity of 1 μg/kg of aldosterone monoacetate (oral dose 5 mg/kg) [%] | antialdosterone activity (in words) | % inhibition of the activity of 1 μg/kg of aldosterone monoacetate (oral dose 10 mg/kg) [%]
CC1(C)CC2C(=CC1=O)CCC1C2CCC2(C)C(C(=O)CO)CCC12 (stereo not shown) [Example 3, 2,2-dimethyl-19-nor-Δ^4-pregnene-21-ol-3,20-dione] | 50 | interesting antialdosterone activity | 
CC1(C)CC2=C3C=CC4(C)C(C(=O)CO)CCC4C3CCC2=CC1=O (stereo not shown) [Example 9, 2,2-dimethyl-19-nor-Δ^4,9,11-pregnatriene-21-ol-3,20-dione] |  | interesting antialdosterone activity | 91
